pIC50: −log10 of the molar value. Peptide text beside a SMILES is read from it.
Experiments:
[1] = Tissue distribution in SD rats after single subcutaneous injection; format: in vivo, SD rat
[2] = In vitro protein binding, rapid equilibrium dialysis; format: in vitro ADME; settings: CD-1, mouse, plasma
[3] = as above; format: in vitro ADME; settings: SD, rat, plasma
[4] = Metabolism of FC-12738 in SD rat plasma; format: in vivo
CYP2C9 = CYP2C9 (Homo sapiens, UniProt P11712); assay: CYP450 inhibition assay; format: in vitro ADME
CYP2C19 = CYP2C19 (Homo sapiens, UniProt P33261); assay: CYP450 inhibition assay; format: in vitro ADME
CYP3A = assay: CYP450 inhibition assay; format: in vitro ADME; settings: human, pooled human liver microsomes
CYP1A2 = biological target: T1, CYP1A2 (Homo sapiens, UniProt P05177); assay: biochemical; format: in vitro ADME
T1 sequence (P05177 1-516): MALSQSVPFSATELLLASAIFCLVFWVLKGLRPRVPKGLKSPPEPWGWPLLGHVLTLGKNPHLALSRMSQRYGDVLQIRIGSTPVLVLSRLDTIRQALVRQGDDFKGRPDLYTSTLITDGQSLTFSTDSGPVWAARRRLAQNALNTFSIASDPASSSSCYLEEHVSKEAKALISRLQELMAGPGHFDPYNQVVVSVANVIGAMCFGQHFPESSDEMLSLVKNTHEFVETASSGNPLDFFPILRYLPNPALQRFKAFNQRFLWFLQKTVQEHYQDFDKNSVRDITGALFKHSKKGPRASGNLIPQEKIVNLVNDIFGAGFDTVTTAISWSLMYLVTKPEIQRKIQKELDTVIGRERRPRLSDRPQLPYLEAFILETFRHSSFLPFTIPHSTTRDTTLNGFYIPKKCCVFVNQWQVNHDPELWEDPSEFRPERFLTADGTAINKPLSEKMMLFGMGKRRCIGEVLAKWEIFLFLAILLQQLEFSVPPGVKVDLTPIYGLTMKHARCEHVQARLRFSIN

CYP2C8 = biological target: T2, CYP2C8 (Homo sapiens, UniProt P10632); assay: CYP time-dependent inhibition assay; format: in vitro ADME
T2 sequence (P10632 1-490): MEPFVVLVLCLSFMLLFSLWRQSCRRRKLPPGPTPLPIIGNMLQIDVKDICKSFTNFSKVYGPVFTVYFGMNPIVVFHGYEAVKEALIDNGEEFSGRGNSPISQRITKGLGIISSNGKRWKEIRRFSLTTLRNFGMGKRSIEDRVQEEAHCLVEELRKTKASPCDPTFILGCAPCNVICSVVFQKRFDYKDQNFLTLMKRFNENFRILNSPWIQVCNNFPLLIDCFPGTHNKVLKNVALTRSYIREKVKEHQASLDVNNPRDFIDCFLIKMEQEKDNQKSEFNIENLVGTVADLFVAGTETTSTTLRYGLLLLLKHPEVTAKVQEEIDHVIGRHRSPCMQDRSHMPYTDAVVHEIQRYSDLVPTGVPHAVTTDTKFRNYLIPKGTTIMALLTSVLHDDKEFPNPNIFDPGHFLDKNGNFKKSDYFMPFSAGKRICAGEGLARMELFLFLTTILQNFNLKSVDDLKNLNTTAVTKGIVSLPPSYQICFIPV

[5] = kidney, male SD rats, SC 10 mg/kg single
[6] = large intestine, male SD rats, SC 10 mg/kg single
[7] = liver, male SD rats, SC 10 mg/kg single
[8] = lung, male SD rats, SC 10 mg/kg single
[9] = male, SD, rat, fat, sc, 10 mg/kg
[10] = male, SD, rat, heart, sc, 10 mg/kg
[11] = male, SD, rat, kidney, sc, 10 mg/kg
[12] = male, SD, rat, large intestine, sc, 10 mg/kg
[13] = male, SD, rat, liver, sc, 10 mg/kg
[14] = male, SD, rat, lung, sc, 10 mg/kg
[15] = male, SD, rat, muscle, sc, 10 mg/kg
[16] = male, SD, rat, plasma, sc, 10 mg/kg
[17] = male, SD, rat, small intestine, sc, 10 mg/kg
[18] = male, SD, rat, spleen, sc, 10 mg/kg
[19] = male, SD, rat, stomach, sc, 10 mg/kg
[20] = muscle, male SD rats, SC 10 mg/kg single
[21] = small intestine, male SD rats, SC 10 mg/kg single
[22] = spleen, male SD rats, SC 10 mg/kg single
[23] = stomach, male SD rats, SC 10 mg/kg single
[24] = cutoff IC50 shift >= 1.5-fold, 30 min pre-incubation ± NADPH

CYP2C9, sequence (P11712 whole entry): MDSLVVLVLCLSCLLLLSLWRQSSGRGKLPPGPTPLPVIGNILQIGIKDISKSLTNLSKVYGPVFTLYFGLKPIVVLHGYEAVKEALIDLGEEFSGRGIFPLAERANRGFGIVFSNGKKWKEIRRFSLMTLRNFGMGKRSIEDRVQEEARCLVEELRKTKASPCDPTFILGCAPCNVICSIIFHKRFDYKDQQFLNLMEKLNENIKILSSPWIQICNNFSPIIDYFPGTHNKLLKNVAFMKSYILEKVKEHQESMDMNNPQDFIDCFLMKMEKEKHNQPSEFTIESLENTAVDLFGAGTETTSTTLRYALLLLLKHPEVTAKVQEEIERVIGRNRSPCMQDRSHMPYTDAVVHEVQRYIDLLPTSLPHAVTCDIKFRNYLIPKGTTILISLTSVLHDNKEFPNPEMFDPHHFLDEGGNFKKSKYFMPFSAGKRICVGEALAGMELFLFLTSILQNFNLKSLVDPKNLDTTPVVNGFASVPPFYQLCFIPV
CYP2C19, sequence (P33261 whole entry): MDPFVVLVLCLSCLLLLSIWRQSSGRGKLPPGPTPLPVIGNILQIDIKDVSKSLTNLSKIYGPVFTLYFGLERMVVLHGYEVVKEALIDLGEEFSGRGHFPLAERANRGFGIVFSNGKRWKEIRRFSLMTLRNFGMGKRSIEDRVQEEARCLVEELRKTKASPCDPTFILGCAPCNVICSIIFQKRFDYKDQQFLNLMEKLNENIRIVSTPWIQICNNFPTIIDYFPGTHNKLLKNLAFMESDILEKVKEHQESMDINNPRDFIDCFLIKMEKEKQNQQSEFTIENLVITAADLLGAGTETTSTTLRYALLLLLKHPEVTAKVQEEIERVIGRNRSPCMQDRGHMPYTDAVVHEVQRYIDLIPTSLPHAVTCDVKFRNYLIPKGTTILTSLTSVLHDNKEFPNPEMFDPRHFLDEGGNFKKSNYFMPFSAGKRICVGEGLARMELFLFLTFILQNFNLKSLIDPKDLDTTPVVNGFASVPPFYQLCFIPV

CC(C)[C@@H](NC(=O)[C@H](N)Cc1ccc(O)cc1)C(=O)N[C@H](CC(=O)O)C(=O)N[C@H](CCCCN)C(=O)N[C@H](CCCNC(=N)N)C(=O)O [FC-12738, (D-Tyr)-(D-Val)-(D-Asp)-(D-Lys)-(D-Arg)] (HELM PEPTIDE1{[dY].[dV].[dD].[dK].[dR]}$$$$V2.0)
AUC0-last [1, 5]: 135000 ng·h/g
Cmax [1, 5]: 28500 ng/g
Tmax [1, 5]: 30 min
AUC0-last [1, 6]: 4040 ng·h/g
Cmax [1, 6]: 2150 ng/g
Tmax [1, 6]: 30 min
AUC0-last [1, 7]: 4190 ng·h/g
Cmax [1, 7]: 1270 ng/g
Tmax [1, 7]: 30 min
AUC0-last [1, 8]: 6840 ng·h/g
Cmax [1, 8]: 5330 ng/g
Tmax [1, 8]: 30 min
Tolerability / adverse effects in-life ([1]; male SD rats, SC 10 mg/kg single, tissue distribution study): No adverse effect was observed
tissue level at time at 0.5 h ([1]; male, SD, rat, brain, sc, 10 mg/kg): 128 ng/g
tissue level at time at 0.5 h [1, 9]: 1070 ng/g
tissue level at time at 2 h [1, 9]: 103 ng/g
tissue level at time at 0.5 h [1, 10]: 2150 ng/g
tissue level at time at 2 h [1, 10]: 365 ng/g
tissue level at time at 0.5 h [1, 11]: 28500 ng/g
tissue level at time at 2 h [1, 11]: 17300 ng/g
tissue level at time at 8 h [1, 11]: 14300 ng/g
tissue level at time at 0.5 h [1, 12]: 2150 ng/g
tissue level at time at 2 h [1, 12]: 430 ng/g
tissue level at time at 8 h [1, 12]: 226 ng/g
tissue level at time at 0.5 h [1, 13]: 1270 ng/g
tissue level at time at 2 h [1, 13]: 616 ng/g
tissue level at time at 8 h [1, 13]: 269 ng/g
tissue level at time at 0.5 h [1, 14]: 5330 ng/g
tissue level at time at 2 h [1, 14]: 752 ng/g
tissue level at time at 8 h [1, 14]: 109 ng/g
tissue level at time at 0.5 h [1, 15]: 1490 ng/g
tissue level at time at 2 h [1, 15]: 191 ng/g
tissue level at time at 8 h [1, 15]: 46.4 ng/g
AUC(0-t) [1, 16]: 14400 ng·h/mL
Cmax [1, 16]: 14200 ng/mL
Tmax [1, 16]: 30 min
level at 0.5 h [1, 16]: 14200 ng/mL
level at 2 h [1, 16]: 1790 ng/mL
level at 8 h [1, 16]: 5.04 ng/mL
tissue level at time at 0.5 h [1, 17]: 2060 ng/g
tissue level at time at 2 h [1, 17]: 775 ng/g
tissue level at time at 8 h [1, 17]: 188 ng/g
tissue level at time at 0.5 h [1, 18]: 1490 ng/g
tissue level at time at 2 h [1, 18]: 345 ng/g
tissue level at time at 8 h [1, 18]: 239 ng/g
tissue level at time at 0.5 h [1, 19]: 3370 ng/g
tissue level at time at 2 h [1, 19]: 555 ng/g
tissue level at time at 8 h [1, 19]: 96.7 ng/g
AUC0-last [1, 20]: 1930 ng·h/g
Cmax [1, 20]: 1490 ng/g
Tmax [1, 20]: 30 min
AUC0-last [1, 21]: 4970 ng·h/g
Cmax [1, 21]: 2060 ng/g
Tmax [1, 21]: 30 min
AUC0-last [1, 22]: 3280 ng·h/g
Cmax [1, 22]: 1490 ng/g
Tmax [1, 22]: 30 min
AUC0-last [1, 23]: 4760 ng·h/g
Cmax [1, 23]: 3370 ng/g
Tmax [1, 23]: 30 min
fraction unbound at 6 h, 0.2 µM [2]: 0.449
fraction unbound at 6 h, 2 µM [2]: 0.455
fraction unbound at 6 h, 10 µM [2]: 0.479
fraction unbound at 6 h, 0.2 µM [3]: 0.482
fraction unbound at 6 h, 2 µM [3]: 0.443
fraction unbound at 6 h, 10 µM [3]: 0.493
Relative MS abundance (%Total) ([4]; male SD rat plasma 0-2 h, IV 2 mg/kg FC-12738 single): 97.10%
Relative MS abundance (%Total) ([4]; male SD rat plasma 0-4 h, SC 10 mg/kg FC-12738 single): 96.57%
pIC50 (CYP2C9): < 4.00
pIC50 (CYP2C19): < 4.00
pIC50 (CYP3A): < 4.00
pIC50 (CYP1A2): < 4.00
Time-dependent inhibition of CYP1A2 (CYP1A2; [24]): no time-dependent inhibition
pIC50 (CYP2C8): < 4.00
Time-dependent inhibition of CYP2C8 (CYP2C8; [24]): no time-dependent inhibition
